Data set [1] addresses T1, dihydropyrimidine dehydrogenase (DPD) (Homo sapiens, UniProt Q12882).
T1 construct: host or cells: endogenous enzyme of the body (in vivo drug catabolism)
T1 sequence (Q12882 4-1025): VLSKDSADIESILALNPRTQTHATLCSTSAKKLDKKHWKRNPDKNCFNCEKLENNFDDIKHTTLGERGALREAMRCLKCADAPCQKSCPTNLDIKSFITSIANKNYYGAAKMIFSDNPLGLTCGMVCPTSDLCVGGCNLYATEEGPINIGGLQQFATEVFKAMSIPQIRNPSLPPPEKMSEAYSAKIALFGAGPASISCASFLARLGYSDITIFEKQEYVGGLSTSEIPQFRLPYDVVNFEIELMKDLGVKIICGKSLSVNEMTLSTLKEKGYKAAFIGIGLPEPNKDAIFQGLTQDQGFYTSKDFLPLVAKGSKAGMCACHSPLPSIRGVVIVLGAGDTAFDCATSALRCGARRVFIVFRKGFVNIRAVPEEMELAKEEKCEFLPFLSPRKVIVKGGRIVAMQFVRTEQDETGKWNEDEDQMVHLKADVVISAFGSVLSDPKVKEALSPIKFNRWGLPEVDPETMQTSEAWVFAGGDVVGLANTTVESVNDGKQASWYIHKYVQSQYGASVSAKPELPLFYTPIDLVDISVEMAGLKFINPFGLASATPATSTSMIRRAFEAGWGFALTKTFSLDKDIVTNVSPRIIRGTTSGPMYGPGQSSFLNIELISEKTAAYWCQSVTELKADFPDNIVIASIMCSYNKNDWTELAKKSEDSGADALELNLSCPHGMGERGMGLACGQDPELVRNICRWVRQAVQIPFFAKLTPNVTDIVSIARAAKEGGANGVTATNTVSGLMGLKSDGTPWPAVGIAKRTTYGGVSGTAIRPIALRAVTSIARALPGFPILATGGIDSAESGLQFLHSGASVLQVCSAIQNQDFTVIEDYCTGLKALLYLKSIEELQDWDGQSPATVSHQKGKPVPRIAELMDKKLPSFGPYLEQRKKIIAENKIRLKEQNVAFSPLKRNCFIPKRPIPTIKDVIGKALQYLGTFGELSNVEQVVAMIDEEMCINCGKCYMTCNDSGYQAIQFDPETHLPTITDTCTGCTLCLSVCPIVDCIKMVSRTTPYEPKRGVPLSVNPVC
As to conditions: cited from earlier work.

Data set [2] has as its system advanced colorectal cancers. The settings on record: 5-FU alone; cited from earlier work.
For data set [3] the following is noted: cited from earlier work.
The conditions of data set [4]: human, in vivo.
In data set [5] the test system is patients with proliferative LN. As to conditions: 59 patients, cited from earlier work; for patients who died during maintenance therapy: followed for as long as 30 months.
Another data set has as its system patients with severe LN. As to conditions: cited from earlier work; for combined end point, complete plus partial remission (number of patients): P=0.009; for complete remission (number of patients) / complete remission (percent of patients) / partial remission (number of patients): induction therapy of LN; for complete remission (number of patients) / complete remission (percent of patients): 140 patients randomized.

Data set [6] has as its system patients with class IV LN. As to conditions: cited from earlier work.
The subject of data set [7] is patients with class IV LN. The settings on record: cited from earlier work; for renal remission achieved: then AZA maintenance.
Data set [8] deals with rheumatoid arthritis patients. As to conditions: cited from earlier work.
Data set [9] relates to rheumatoid arthritis patients. As to conditions: five trials, 300 patients, cited from earlier work.

Like-named read-outs stand apart in the source and are kept apart here.

`O=c1[nH]cc(F)c(=O)[nH]1` [5-FU, 5-Fluorouracil]: the “fraction of a dose transformed by DPD to the inactive dihydrofluorouracil form” value in [1] (in vivo) was “more than 80%”. Besides, the “fraction of an injected dose rapidly inactivated by DPD” value in data set [1] (injected dose) is recorded as “More than 85%”. Further, in [2], the partial remissions is listed as 10-30%. The figures for the “dose excreted unchanged in the urine” value in data set [3] (normal individuals) and in data set [3] (people genetically deficient in DPD) were 10% and 90%, respectively.

For `Cn1cnc([N+](=O)[O-])c1Sc1ncnc2nc[nH]c12` [AZA, azathioprine], in data set [4], the “6-TG level at maintained therapeutic response” value amounted to 187 pmol and the “therapeutic range of 6-TG” value is 140 to 249 pmol. Also, the “patients who developed chronic renal failure during maintenance therapy” value in [5] is recorded as “one”.

As for `COc1c(C)c2c(c(O)c1C/C=C(\C)CCC(=O)OCCN1CCOCC1)C(=O)OC2` [MMF, Mycophenolate mofetil], in data set [5], the “patients who died during maintenance therapy” value was “one” and the “patients who developed chronic renal failure during maintenance therapy” value is listed as “one”. In the data set on patients with severe LN, the “combined end point, complete plus partial remission (number of patients)” value is reported as 37 patients; the “complete remission (number of patients)” value is on record as 16 patients; the “complete remission (percent of patients)” value was 23%; the “partial remission (number of patients)” value is given as “Twenty-one”.

Turning to `O=P1(N(CCCl)CCCl)NCCCO1` (stereo not shown) [CYC, Cyclophosphamide], the renal survival in [6] (black patients, at year 5) was 71%. In [6] (nonblack patients, through 5 years of follow-up), the renal survival rate is listed as 95%. Further, in data set [7] (high-dose group (six monthly pulses followed by two quarterly pulses IV)), the renal remission achieved is 54%. Moreover, the subsequent renal flares in [7] (high-dose group) was 29%. In addition, the renal remission achieved in [7] (low-dose group (500 mg biweekly x six pulses IV)) was 71%. Also, the subsequent renal flares in data set [7] (low-dose group) is given as 27%. In [5], the “patients who died during maintenance therapy” value is given as “four” and the “patients who developed chronic renal failure during maintenance therapy” value is given as “three”. Moreover, in the data set on patients with severe LN, the “combined end point, complete plus partial remission (number of patients)” value is on record as 21 patients; the “complete remission (number of patients)” value is recorded as “four”; the “complete remission (percent of patients)” value is given as 6%; the “partial remission (number of patients)” value is reported as 17 patients. For the same compound, in the data set on patients with severe LN (all in patients randomized to IV CYC), the deaths result is “Three”.

For the compound `CN(Cc1cnc2nc(N)nc(N)c2n1)c1ccc(C(=O)N[C@@H](CCC(=O)O)C(=O)O)cc1` [MTX, methotrexate], in data set [8] (human, in vivo), the “fraction of rheumatoid arthritis patients showing major improvement” value is on record as “one-third”. Besides, the “patients with mild adverse effects” value in data set [8] (rheumatoid arthritis patients) is listed as “up to 60%”. Besides, in data set [9], the “more likely than placebo to discontinue treatment due to adverse reactions” value is “three”. Besides, in data set [9] (placebo group seven percent), the “people who withdrew due to adverse effects” value was “twenty-two”.

The record behind these values is patent US20060253263A1, “Method to optimize drug selection, dosing and evaluation and to help predict therapeutic response and toxicity from immunosuppressant therapy” (priority 2005, published 2006).
